Data published in US9346849B2, “Amino sugar-bound anti-cancerous noble metal complex” (NATIONAL UNIVERSITY CORPORATION NARA INSTITUTE OF SCIENCE …, priority 2012, dated 2016).

How the values were obtained:
Assay type in all cases: cell-based
[1] = system: MKN28; test: Anticancer activity test (MTT viability), gastric cancer cell line MKN28; details: MKN28 (n=4), drug incubation 48 hours
Procedure: (§1) 1. Gastric cancer cell lines MKN28 and MKN45 were individually seeded in 96-well plates in duplicate at 1×10^3 cells/100 μL/well (a medium (RPMI1640) containing 10% FBS was used) and incubated at 37° C. and 5% CO2 for 68 hours.
(§2) 2. A preparation made by mixing a drug (CDDP ([PtCl2(NH3)2]) or Pd-Oqn) with the medium was dispensed into each well, and thereafter incubated at 37° C. and 5% CO2 for 48 hours.
(§3) 3. MTT was dispensed into each well at 10 μL/well, followed by incubation at 37° C. for 4 hours. Thereafter, the absorbance at 450 nm was measured with a microplate reader, and the viability was calculated.

[2] = system: MKN45; test: Anticancer activity test (MTT viability), gastric cancer cell line MKN45; details: for IC50: MKN45 (n=4), drug incubation 48 hours, MTT
Procedure: as §1, §2, §3

[3] = system: Panc-1; test: Anticancer activity test (MTT viability), pancreatic cancer cell line Panc-1; details: for IC50: Panc-1 (n=4), drug incubation 48 hours, MTT
Procedure: 1. A pancreatic cancer cell line (Panc-1) was seeded in 96-well plates in duplicate at 1×10^3 cells/100 μL/well (a medium (RPMI1640) containing 10% FBS was used) and incubated at 37° C. and 5% CO2 for 68 hours.
as §2, §3

| anticancer activity (IC50) relative to cisplatin ([2]; stomach cancer cells MKN45 and MKN28 together, versus cisplatin) | anticancer activity (IC50) relative to cisplatin ([3]; Panc-1, versus cisplatin) | Compound | IC50 [1] [µM] | IC50 [2] [µM] | IC50 [3] [µM] |
| --- | --- | --- | --- | --- | --- |
|  |  | N.N.[Cl][Pt][Cl] [CDDP, [PtCl2(NH3)2], reference compound] | 87.2 | 28.2 | 124 |
| about two to five times higher | about two times higher | [Pd(GlcN=Oqn)Cl] [Pd-Oqn] | 17.5 | 11.7 | 63.1 |
